Measurements published in patent US20240041830A1, “CIRCULATING BIOMARKERS OF RESPONSE TO PD-1/PD-L1 BLOCKADE AND GSK-3 INHIBITION” (Brown University, priority 2022, published 2024).

Tests used:
KM12C = test: microarray analysis; format: cell-based, human; conditions: 1 μM, 24 hours, vs untreated
93T449 liposarcoma = test: Western blot analysis; format: cell-based; conditions: IC50, 48 hours
Experimental: (§1) Western blot analysis. Cells were plated in a 6-well plate and incubated overnight before the spent media was replaced with drugged media. Drug treatment lasted for indicated durations. Protein was extracted using radioimmunoprecipitation (RIPA) assay buffer (Cat #R0278, Sigma-Aldrich, St. Louis, MO, USA) containing cOmplete™, Mini, EDTA-free Protease Inhibitor Cocktail (Cat #4693159001, Roche, Basel, Switzerland) from sub-confluent cells. Denaturing sample buffer was added, samples were boiled at 95° C. for ten minutes, and an equal amount of protein lysate was electrophoresed through NuPAGE™ 4 to 12%, bis-Tris, 1.5 mm, Mini Protein Gels (Invitrogen, Waltham, MA, USA) then transferred to PVDF membranes. The PVDF membrane was blocked with 5% non-fat milk (Sigma-Aldrich, St. Louis, MO, USA) in 1× TTBS. Primary antibodies were incubated with the transferred PVDF membrane in blocking buffer at 4° C. overnight. Secondary antibodies included Goat anti-Rabbit IgG (H+L) Secondary Antibody, HRP (Cat #31460, Invitrogen, Waltham, MA, USA), and Goat anti-Mouse IgG (H+L) Secondary Antibody, HRP (Cat #31430, Invitrogen, Waltham, MA, USA). The signal was detected using Pierce™ ECL Western Blotting Substrate (Cat #32106, Thermo Scientific, Waltham, MA, USA) and a Syngene Imaging System (RRID: SCR_015770).
(§2) Saos-2 osteosarcoma and 93T449 liposarcoma cell lines were pretreated at IC50 with elraglusib. The cells were harvested for Western blot analysis after 48 hours of treatment. Both cancer cell lines as well as TALL-104 T-cells and NK-92 NK cells were treated with 0.5 μM elraglusib for twenty-four hours and harvested for Luminex cytokine profiling.

Saos-2 osteosarcoma = test: Western blot analysis; format: cell-based; conditions: IC50, 48 hours
Experimental: as §1, §2

MSS cell line CT-26 = test: syngeneic murine colon carcinoma BALB/c model, survival and tumor response; format: in vivo, mouse
Experimental: In vivo studies. […] Once tumor volume reached at least 100 mm^3, mice were randomly assigned to one of seven groups (12 mice/group): Control (isotype), elraglusib, elraglusib+Isotype, anti-PD-1, anti-PD-L1, elraglusib+anti-PD-1, and elraglusib+anti-PD-L1. All treatments were delivered by IP injection using the following dosing schedule: Isotype (70 mg/kg, twice a week), elraglusib (70 mg/kg, twice a week), anti-PD-1 (10 mg/kg, twice a week), anti-PD-L1 (10 mg/kg, twice a week). Treatment dosing was determined based on previous studies of elraglusib and anti-PD-1/anti-PD-L1. […] The treatment continued until mice developed signs of discomfort from excessive tumor growth. Mice were weighed once a week to monitor signs of drug toxicity. The length (L) and width (W) of the masses were measured three times per week with a digital caliper, and the tumor volume was calculated by applying the formula: 0.5LW2 Collection of whole blood and serum was performed by cardiac puncture and sent to Antech Diagnostics GLP (Morrisville, NC, USA) for blood cell count and chemistry tests, or in-house cytokine profiling. Tumors and organs were dissected and harvested for analysis by immunohistochemistry and flow cytometry.
In a syngeneic murine colon carcinoma BALB/c model using microsatellite stable cell line CT-26, the inventors compared isotype, elraglusib (70 mg/kg 2×/week), αPD-1 (10 mg/kg 2×/week), αPD-L1 (10 mg/kg 2×/week), elraglusib+αPD-1, and elraglusib+αPD-L1 treatment groups.
The inventors evaluated the potential for elraglusib to increase the efficacy of immune checkpoint blockade and utilized a syngeneic murine colon carcinoma BALB/c murine model using a MSS cell line CT-26 (FIG. 4A). Mice were randomly assigned to one of seven groups: isotype (N=12), elraglusib (N=12), elraglusib+isotype (N=12), anti-PD-1 (N=12), anti-PD-L1 (N=12), elraglusib+anti-PD-1 (N=12), and elraglusib+ anti-PD-L1 (N=12).

HT-29 = test: Western blot analysis; format: cell-based, human
Experimental: Pyroptosis assay. Recombinant Human TNF-α (Cat #300-01A, PeproTech, Rocky Hill, NJ, USA) and Recombinant Human IFN-γ (Cat #300-02, PeproTech, Rocky Hill, NJ, USA) were purchased for use in western blot analysis while rhTRAIL was generated in-house. See Kim et al., J. Biol. Chem., 279, 40044-40052 (2004).
as §1
Elraglusib uprequlates tumor cell PD-L1 and proapoptotic pathway expression as well as downregulates immunosuppressive/angiogenic protein expression and pro-survival pathways. The inventors performed Western blot analyses on colorectal cancer cells (HCT-116, HT-29) treated with elraglusib over a 72-hour time course. […] The inventors observed increases in PD-L1 expression as the treatment duration increased. To further elucidate the elraglusib-mediated effects on tumor cell survival, the inventors probed for survival factors Bcl-2 and Survivin and noted decreases in protein expression in both cell lines, especially at the later timepoints (forty-eight hours, seventy-two hours). […] HCT116 cells are heterozygous for β-catenin, harboring one wild-type allele and one mutant allele with inactivation of one of the residues phosphorylated by GSK-3β that is frequently mutated in tumors. Kaler, Augenlicht, & Klampfer, PLoS ONE, 7, e45462 (2012). HT-29, KM12C, and SW480 cells harbor APC mutations. Rowan et al., Proc. Natl. Acad. Sci. USA, 97, 3352 (2000).

HCT 116 GFP+ cells = test: single-color GFP+ immune cell co-culture
Experimental: Single-color immune cell co-culture experiments. A total of 5000 HT-29 GFP+ or HCT 116 GFP+ cells were plated per well in a clear-bottom, black-walled 96-well tissue culture plate and were allowed to adhere overnight. Cells were subsequently treated with DMSO, 5 μM elraglusib, or 5000 TALL-104 or NK-92 cells (for an effector-to-tumor ratio of 1:1) for forty-eight hours. Nine images were taken per well at 10× magnification using a Molecular Devices ImageXpress® Confocal HT.ai High-Content Imaging System and quantified for the number of GFP+ objects using the MetaXpress (RRID: SCR_016654) software (Molecular Devices, San Jose, CA, USA). 40× images were also taken at twenty-four hours for representative images of cellular morphology changes.
To determine if pyroptosis-mediated immune cell activity played a role in the co-culture results, the inventors examined higher-power co-culture images for evidence of pyroptosis.

[1] = especially forty-eight, seventy-two hours

Cn1cc(C2=C(c3coc4ccc(F)cc34)C(=O)NC2=O)c2cc3c(cc21)OCO3 [elraglusib]
AGGF1 Fold Change (KM12C): −1.6 | BARD1 Fold Change (KM12C): −3.03 | BCL9 Fold Change (KM12C): −1.55 | BIK Fold Change (KM12C): 1.51 | BRAF Fold Change (KM12C): −2.05 | BRCA1 Fold Change (KM12C): −1.71 | BRD3 Fold Change (KM12C): −1.58 | CCND2 Fold Change (KM12C): −1.58 | CCNE1 Fold Change (KM12C): −1.57 | CCNE2 Fold Change (KM12C): −2.64 | CD109 Fold Change (KM12C): −2.09 | CDC25C Fold Change (KM12C): −1.55 | CDCA2 Fold Change (KM12C): −1.51 | CDK1 Fold Change (KM12C): −2 | CXCL1 Fold Change (KM12C): −1.53 | E2F7 Fold Change (KM12C): −2.5 | E2F8 Fold Change (KM12C): −3.16 | ERBB2IP Fold Change (KM12C): −1.88 | FZD3 Fold Change (KM12C): −1.76 | GDF15 Fold Change (KM12C): −2.29 | GZMA Fold Change (KM12C): 1.53 | IGF2BP2 Fold Change (KM12C): −1.51 | IL6ST Fold Change (KM12C): −1.88 | IL27RA Fold Change (KM12C): −1.72 | IL32 Fold Change (KM12C): 1.55 | IRF2BP2 Fold Change (KM12C): −1.6 | JMY Fold Change (KM12C): −2.03 | LTBP1 Fold Change (KM12C): −2.24 | MAP2K6 Fold Change (KM12C): −3.66 | MAP3K1 Fold Change (KM12C): −1.92 | MDM2 Fold Change (KM12C): −1.61 | MET Fold Change (KM12C): −1.79 | MKI67 Fold Change (KM12C): −1.53 | MTBP Fold Change (KM12C): −1.58 | MTDH Fold Change (KM12C): −1.74 | NFKBIA Fold Change (KM12C): −2.51 | NRP1 Fold Change (KM12C): −1.88 | TAB3 Fold Change (KM12C): −1.63 | TGFBR2 Fold Change (KM12C): −2.11 | TGFBR3 Fold Change (KM12C): −3.72 | TLR3 Fold Change (KM12C): −2.25 | TNFRSF1B Fold Change (KM12C): −1.56 | TNFRSF10A Fold Change (KM12C): −1.54 | TNFRSF11A Fold Change (KM12C): −1.64 | TNFRSF12A Fold Change (KM12C): 1.53 | TNIK Fold Change (KM12C): −1.59 | TRAF5 Fold Change (KM12C): −1.52 | TRAF6 Fold Change (KM12C): −1.57 | TRAIP Fold Change (KM12C): 1.53 | TRIB1 Fold Change (KM12C): −2.37 | cPARP (93T449 liposarcoma): increase | PD-L1 expression (93T449 liposarcoma; cell line not given): increase | cPARP (Saos-2 osteosarcoma): increase | PD-L1 expression (Saos-2 osteosarcoma; cell line not given): increase | survival compared to the control (MSS cell line CT-26; N=12 per group): statistically significant improved survival | hazard ratio for death (HR) (MSS cell line CT-26; compared to isotype control group): 0.12 | median overall survival (MSS cell line CT-26; elraglusib 70 mg/kg 2×/week, αPD-1/αPD-L1 10 mg/kg 2×/week, isotype control group 16 d): 19 days | NF-κB p65 expression (HT-29; 72-hour time course): decreased expression | PD-L1 expression (HT-29; as treatment duration increased): increases | Bcl-2 protein expression (HT-29; [1]): decreases | Survivin protein expression (HT-29; [1]): decreases | cleaved PARP (cPARP) (HT-29; low dose, until the 48-hour timepoint): little to no cleaved PARP | tumor cell death (HCT 116 GFP+ cells; 5 μM elraglusib and NK-92 vs drug-only or immune-cell-only): increased tumor cell death | GFP+ cells per low-powered field (HCT 116 GFP+ cells; 5 μM elraglusib only vs DMSO only, forty-eight hours): significant decrease | number of GFP+ cells per field (HCT 116 GFP+ cells; TALL-104 and 5 μM elraglusib vs TALL-104): significant decrease | pyroptotic events (HCT 116 GFP+ cells; co-culture with TALL-104, 5 μM elraglusib): significant increase
